Data: the supplement of paper PMC10307832

What was measured:
Assay in all cases: relative viability (nuclei count vs DMSO), 5 days (fraction); higher = more cells survive
Sorafenib + Alpelisib = compound: CNC(=O)c1cc(Oc2ccc(NC(=O)Nc3ccc(Cl)c(C(F)(F)F)c3)cc2)ccn1 [Sorafenib] + Cc1nc(NC(=O)N2CCC[C@H]2C(N)=O)sc1-c1ccnc(C(C)(C)C(F)(F)F)c1 [Alpelisib] (partner 2 µM)
How it was run: (§1)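 Lung cancer cell lines were seeded in 1536-well plates and dosed by pin tool the next day, with either a single drug or a fixed anchor-drug dose combined with five library-drug doses (not always all listed) spaced in √10 steps. Five days later, one step fixed the cells and stained their nuclei (final 0.05% Triton X-100, 1% formaldehyde, 1 ug/ml Hoechst), and nuclei were counted on 4× images. Relative viability is the nuclei count in treated wells divided by the count in vehicle wells, and each value is the median of duplicate plates.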

Sorafenib + Foretinib = compound: CNC(=O)c1cc(Oc2ccc(NC(=O)Nc3ccc(Cl)c(C(F)(F)F)c3)cc2)ccn1 [Sorafenib] + COc1cc2c(Oc3ccc(NC(=O)C4(C(=O)Nc5ccc(F)cc5)CC4)cc3F)ccnc2cc1OCCCN1CCOCC1 [Foretinib] (partner 0.25 µM)
How it was run: as §1

Sorafenib + Olaparib = compound: CNC(=O)c1cc(Oc2ccc(NC(=O)Nc3ccc(Cl)c(C(F)(F)F)c3)cc2)ccn1 [Sorafenib] + O=C(c1cc(Cc2n[nH]c(=O)c3ccccc23)ccc1F)N1CCN(C(=O)C2CC2)CC1 [Olaparib] (partner 8 µM)
How it was run: as §1

Sorafenib + OSI-027 = compound: CNC(=O)c1cc(Oc2ccc(NC(=O)Nc3ccc(Cl)c(C(F)(F)F)c3)cc2)ccn1 [Sorafenib] + COc1cccc2cc(-c3nc([C@H]4CC[C@H](C(=O)O)CC4)n4ncnc(N)c34)[nH]c12 [OSI-027] (partner 0.5 µM)
How it was run: as §1

Sorafenib + Navitoclax = compound: CNC(=O)c1cc(Oc2ccc(NC(=O)Nc3ccc(Cl)c(C(F)(F)F)c3)cc2)ccn1 [Sorafenib] + CC1(C)CCC(c2ccc(Cl)cc2)=C(CN2CCN(c3ccc(C(=O)NS(=O)(=O)c4ccc(N[C@H](CCN5CCOCC5)CSc5ccccc5)c(S(=O)(=O)C(F)(F)F)c4)cc3)CC2)C1 [Navitoclax] (partner 0.5 µM)
How it was run: as §1

| Cell Line | relative viability (Sorafenib + Alpelisib; first compound 0.08 µM) | relative viability (Sorafenib + Alpelisib; first compound 0.253 µM) | relative viability (Sorafenib + Alpelisib; first compound 2.53 µM) | relative viability (Sorafenib + Alpelisib; first compound 8 µM) | relative viability (Sorafenib + Foretinib; first compound 0.08 µM) | relative viability (Sorafenib + Foretinib; first compound 0.253 µM) | relative viability (Sorafenib + Foretinib; first compound 2.53 µM) | relative viability (Sorafenib + Foretinib; first compound 8 µM) | relative viability (Sorafenib + Olaparib; first compound 0.08 µM) | relative viability (Sorafenib + Olaparib; first compound 0.253 µM) | relative viability (Sorafenib + Olaparib; first compound 2.53 µM) | relative viability (Sorafenib + Olaparib; first compound 8 µM) | relative viability (Sorafenib + OSI-027; first compound 0.08 µM) | relative viability (Sorafenib + OSI-027; first compound 0.253 µM) | relative viability (Sorafenib + OSI-027; first compound 2.53 µM) | relative viability (Sorafenib + OSI-027; first compound 8 µM) | relative viability (Sorafenib + Navitoclax; first compound 0.08 µM) | relative viability (Sorafenib + Navitoclax; first compound 0.253 µM) | relative viability (Sorafenib + Navitoclax; first compound 2.53 µM) | relative viability (Sorafenib + Navitoclax; first compound 8 µM) |
| --- | --- | --- | --- | --- | --- | --- | --- | --- | --- | --- | --- | --- | --- | --- | --- | --- | --- | --- | --- | --- |
| HCC-366 | 0.563 | 0.484 | 0.429 | 0.307 | 0.927 | 0.957 | 0.937 | 0.94 | 0.354 | 0.319 | 0.287 | 0.268 | 0.951 | 0.937 | 0.866 | 0.327 | 1.11 | 0.944 | 1.06 | 1.01 |
| HCC-827 | 1.07 |  | 0.988 | 0.826 | 1.1 | 0.981 | 1.02 | 1.02 | 0.621 | 0.623 | 0.572 | 0.464 | 0.956 | 0.715 | 0.723 | 0.723 | 1.04 | 1.04 | 0.984 | 0.905 |
| HOP-62 | 0.995 | 0.775 | 0.765 | 0.794 | 1.05 | 0.916 | 0.749 | 0.676 | 0.28 | 0.389 | 0.405 | 0.249 | 0.848 | 0.631 | 0.759 | 0.657 | 1.14 | 0.758 | 0.761 | 0.814 |
| IA-LM | 0.714 | 0.547 | 0.431 | 0.442 |  | 0.624 | 0.61 | 0.757 | 0.65 | 0.601 | 0.51 | 0.43 |  |  |  |  | 0.579 | 0.385 | 0.488 | 0.438 |
| LC-2-ad | 1.02 | 0.863 |  | 0.678 | 0.923 | 0.989 | 0.985 | 0.744 | 0.738 | 0.768 | 0.751 | 0.655 | 0.889 |  | 0.9 | 0.573 | 0.343 | 0.413 | 0.418 | 0.218 |
| LCLC-97TM1 | 0.237 | 0.247 | 0.184 | 0.198 | 0.959 | 0.837 | 0.897 | 0.926 | 0.413 | 0.324 | 0.297 | 0.253 | 0.552 | 0.515 | 0.336 | 0.272 | 0.356 | 0.373 | 0.323 | 0.313 |
| LCLC-103H | 1.06 | 0.991 | 0.893 | 1.18 | 0.793 | 0.794 | 0.813 | 0.882 | 0.796 | 0.734 | 0.831 | 0.832 | 0.556 | 0.425 | 0.528 | 0.469 |  |  |  |  |
| LK-2 | 1.06 |  | 0.89 | 0.647 | 1.06 | 1 | 0.976 | 0.747 | 0.674 | 0.734 | 0.575 | 0.346 | 0.201 | 0.193 | 0.19 | 0.139 | 0.904 | 0.793 | 0.819 | 0.477 |
| LOU-NH91 | 0.896 | 0.791 | 0.885 | 0.589 | 1.02 | 0.973 | 1.08 | 0.942 | 0.936 | 0.975 | 0.96 | 0.657 | 0.783 | 0.713 | 0.788 | 0.799 | 0.82 | 0.742 | 0.86 | 0.61 |
| LU99A | 0.58 | 0.435 | 0.468 | 0.453 | 0.741 | 0.758 | 0.78 | 0.728 | 0.244 | 0.234 | 0.244 | 0.237 | 0.299 | 0.27 | 0.299 | 0.272 | 0.811 | 0.669 | 0.72 | 0.579 |
| NCI-H358 | 1.06 | 1.12 | 0.934 | 0.337 | 0.786 | 0.723 |  | 0.489 | 0.551 | 0.491 | 0.368 | 0.375 |  | 0.75 | 0.839 |  |  |  |  |  |
| NCI-H650 | 1.31 | 0.96 | 0.952 | 0.963 | 1.02 | 0.863 | 0.942 | 0.857 | 0.377 | 0.312 | 0.295 | 0.227 | 0.541 | 0.363 | 0.451 | 0.504 |  |  |  |  |
| NCI-H661 | 0.949 | 0.478 | 0.596 | 0.365 | 1.03 | 0.986 |  | 0.701 | 0.726 | 0.764 | 0.679 | 0.444 | 0.759 | 0.73 | 0.655 | 0.483 |  |  |  |  |
| NCI-H1563 | 0.903 | 1 | 0.894 | 0.728 | 0.992 | 0.929 | 0.943 | 0.577 |  |  |  |  | 0.792 | 0.766 | 0.687 | 0.7 |  |  |  |  |
| NCI-H1650 |  |  |  |  | 1.43 | 1.24 | 1.32 | 0.365 | 0.684 | 0.741 | 0.707 | 0.643 | 0.83 | 0.599 | 0.908 | 0.31 | 1.2 | 1.1 | 1.29 | 1.29 |
| NCI-H1703 | 0.301 | 0.176 | 0.189 | 0.156 | 0.384 | 0.283 | 0.298 | 0.278 | 0.317 | 0.27 | 0.194 | 0.192 |  |  |  |  | 1.03 | 0.319 | 0.215 | 0.148 |
| NCI-H1792 | 0.704 | 0.622 | 0.657 | 0.664 |  |  |  |  | 0.645 | 0.416 | 0.347 | 0.179 | 0.811 | 0.697 | 0.695 | 0.394 | 0.671 | 0.51 | 0.585 | 0.544 |
| NCI-H2342 |  |  |  |  | 1 | 1 | 0.914 | 0.568 | 0.433 | 0.487 | 0.351 | 0.388 | 0.676 | 0.522 | 0.542 | 0.482 |  |  |  |  |
| SW 900 |  |  |  |  | 1.2 | 0.888 | 0.782 | 0.604 | 0.764 | 0.88 | 0.909 | 0.34 | 0.842 | 0.427 | 0.579 | 0.49 |  |  |  |  |
